Assays:
[1] = system: 3T3-L1 cells; test: Adipogenesis assay (in vitro), Nile Red lipid staining; type: cell-based; settings: Mus musculus, mean values of at least 2 independent tests, read-out: Adipogenesis inhibition IC50
Protocol: 3T3-L1 cells (mouse embryonic fibroblast-like adipocyte cell line) are seeded in a 48-well plate with collagen I-coating in a concentration of 3×10^4 cells/well. After 72 h cultivation at 37° C. and 5% CO2 in DMEM (Dulbecco's Modified Eagle Medium), enriched with 10% calf serum, various concentrations of the test substances in DMEM, enriched with 10% foetal calf serum and to which are added 1 μg/ml insulin, 0.25 μM dexamethasone and 0.5 mM IBMX (3-isobutyl-1-methylxanthine), are added and incubated for a further 48 h. A media change takes place, in that DMEM, enriched with 10% foetal calf serum and with 1 μg/ml insulin added, are applied. After renewed cultivation for 48 h, a further media change takes place, in which DMEM, enriched with 10% foetal calf serum, is applied.
After a further incubation for 72 h, the intracellularly stored lipids are quantified as a measure for the differentiation of the cells by measuring the fluorescence after staining of the lipids with the fluorescent dye Nile Red.
The inhibition of the adipogenesis in the presence of the test substances is calculated according to the following equation:
[formula] wherein RFU test substance=relative fluorescent units of the wells with test substance and with cells RFU control=relative fluorescent units of the wells without test substance, but with cells RFU control without cells=relative fluorescent units of the wells without test substance and without cells The IC50 is calculated from the adipogenesis inhibition [%] in a series of dilutions of tested samples. This is the concentration at which the adipogenesis is 50% inhibited.

[2] = target: T1, pancreatic lipase (PL) (Sus scrofa, UniProt P00591); test: Inhibition of PL, MUF oleate hydrolysis; type: biochemical; settings: mean values of at least 2 independent tests
T1 construct: purchased Sigma-Aldrich
T1 sequence (P00591 1-450): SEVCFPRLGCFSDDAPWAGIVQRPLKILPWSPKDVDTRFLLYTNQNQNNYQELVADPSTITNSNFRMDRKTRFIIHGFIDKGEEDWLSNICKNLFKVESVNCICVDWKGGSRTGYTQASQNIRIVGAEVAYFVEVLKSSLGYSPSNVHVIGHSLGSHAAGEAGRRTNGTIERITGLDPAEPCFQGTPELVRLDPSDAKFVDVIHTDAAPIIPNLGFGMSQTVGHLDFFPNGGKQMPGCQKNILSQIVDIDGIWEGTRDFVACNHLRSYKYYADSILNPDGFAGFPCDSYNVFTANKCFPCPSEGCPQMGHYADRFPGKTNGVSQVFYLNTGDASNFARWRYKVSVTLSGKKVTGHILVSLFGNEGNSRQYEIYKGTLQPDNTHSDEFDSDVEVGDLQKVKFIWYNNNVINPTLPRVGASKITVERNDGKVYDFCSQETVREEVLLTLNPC
From the text: (§1) Lipogenesis is perceived as the storage of triglycerides in adipocytes. The inhibition of this storage can take place by means of the inhibition of the activity of extracellular lipoprotein lipase (LPL) in that the hydrolysis of extracellular triglycerides and therefore the absorption of free fatty acids by adipocytes are reduced. As a preliminary test, the inhibition of pancreatic lipase (PL) is investigated.
PL (Sigma-Aldrich), in the presence of test substances in different use concentrations has methylumbelliferyl oleate (MUF oleate) added as a substrate. Fluorescent methylumelliferon (MUF), is produced by hydrolysis of the MUF oleate by PL and is quantified. The inhibition of the hydrolysis of the MUF oleate is a measure of the inhibition of activity of the PL.
[formula] wherein MUF test substance=MUF concentration of the wells with test substance and with PL MUF control=MUF concentration of the wells without test substance, but with PL MUF control without PL=MUF concentration of the wells without test substance and without PL
The IC50 is calculated from the inhibition of the PL [%] in a series of dilutions of tested samples. This is the concentration, at which the activity of the PL is 50% inhibited.

[3] = system: 3T3-L1 cells; test: Lipolysis assay, in vitro on 3T3-L1 cells, free glycerol release; type: cell-based; settings: Mus musculus; differentiated 3T3-L1 cells, about 20 hours of incubation; mean values from at least 2 independent tests; read-out: Stimulation of lipolysis EC50
Protocol: 3T3-L1 cells (mouse embryonic fibroblast-like adipocyte cell line) are seeded in a 48-well plate with collagen I-coating in a concentration of 3×10^4 cells/well. The cultivation and differentiation of the cells takes place analogously to the details in Example 2 (adipogenesis assay).
Various concentrations of the test substances are applied to the cells in DMEM, with bovine serum albumen added. After about 20 hours of incubation, the quantification of free glycerol in the supernatant of the cells takes place, which is released by the cells after hydrolysis of triglycerides in the cells and is a measure of the lipolysis of the cells. The quantification of the free glycerol is carried out based on an enzymatic method with a free glycerol reagent.
The stimulation of the lipolysis in the presence of test substances is calculated according to the following equation:
[formula] wherein A test substance=absorption of the wells with test substance and with cells A test substance without cells=absorption of the wells with test substance without cells (absorption control) A control=absorption of the wells without test substance, but with cells A control without cells=absorption of the wells without test substance and without cells
The EC50 is calculated from the lipolysis stimulation [%] in a series of dilutions of tested samples. This is the concentration at which the lipolysis is 50% stimulated.

[4] = target: T2, lipoprotein lipase (LPL) (Mus musculus, UniProt P11152); test: Inhibition of LPL (lipogenesis assay), MUF oleate hydrolysis; type: biochemical; settings: LPL obtained from differentiated 3T3-L1 cells; mean values of at least 2 independent tests
T2 construct: endogenous in cells; host or cells: differentiated 3T3-L1 cells (mouse); heparin-released supernatant
T2 sequence (P11152 28-474): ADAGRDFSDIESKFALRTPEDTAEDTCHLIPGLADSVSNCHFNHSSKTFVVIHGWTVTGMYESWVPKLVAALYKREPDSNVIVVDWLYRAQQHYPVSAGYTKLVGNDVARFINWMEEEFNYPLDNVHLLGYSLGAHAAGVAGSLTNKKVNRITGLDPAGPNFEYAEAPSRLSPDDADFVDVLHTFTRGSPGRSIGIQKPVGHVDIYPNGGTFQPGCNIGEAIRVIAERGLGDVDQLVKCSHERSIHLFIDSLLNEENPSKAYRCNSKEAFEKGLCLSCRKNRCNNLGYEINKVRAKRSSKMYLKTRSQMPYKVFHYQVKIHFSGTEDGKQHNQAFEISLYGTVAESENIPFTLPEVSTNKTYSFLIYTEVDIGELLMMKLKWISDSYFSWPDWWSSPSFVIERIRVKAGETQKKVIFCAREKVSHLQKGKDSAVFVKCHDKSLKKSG
From the text: as §1
The results of the inhibition of the PL are used as a preliminary test and are confirmed on LPL. To obtain LPL, 3T3-L1 cells (mouse embryonic fibroblast-like adipocyte cell line) are seeded in a 6-well plate with collagen I-coating in a concentration of 3×10^5 cells/well. The cultivation and differentiation of the cells takes place analogously to the details in Example 2 (adipogenesis assay). During the differentiation LPL is increasingly expressed. The LPL is present in a membrane-bound state and is released by one hour incubation with heparin solution at 2-8° C. to the supernatant of the cells.
The LPL thus obtained, in the presence of test substances in different use concentrations, has methylumbelliferyl oleate (MUF oleate) added as the substrate. Fluorescent methylumbelliferyl (MUF) is produced by hydrolysis of the MUF oleate by LPL and is quantified. The inhibition of the hydrolysis of the MUF oleate is a measure of the inhibition of the activity of the LPL and therefore the lipogenesis.
[formula] wherein MUF test substance=MUF concentration of the wells with test substance and with LPL MUF control=MUF concentration of the wells without test substance, but with LPL MUF control without LPL=MUF concentration of the wells without test substance and without LPL
The IC50 is calculated from the inhibition of the LPL [%] in a series of dilutions of tested samples. This is the concentration at which the activity of the LPL and therefore the lipogenesis is 50% inhibited.

| IC50 [2] | IC50 [4] | SMILES | IC50 [1] | EC50 [3] |
| --- | --- | --- | --- | --- |
| 240 µM | – | CCNC(=O)OC1CCCC(C)C1C (stereo not shown) [BIO1581, Ethyl-carbamic acid 2,3-dimethyl-cyclohexyl ester] | 160 µM | – |
| 400 µM | – | CCNC(=O)OC1CC(C)CC(C)C1 (mixture of isomers) [BIO1561, Ethyl-carbamic acid 3,5-dimethyl-cyclohexyl ester] | – | – |
| 420 µM | – | CCNC(=O)OC1CCC(C)C(C)C1 (stereo not shown) [BIO1582, Ethyl-carbamic acid 3,4-dimethyl-cyclohexyl ester] | – | – |
| 550 µM | – | CCCCNC(=O)OC1CC(C)CC(C)C1 (stereo not shown) [BIO1840, Butyl-carbamic acid 3,5-dimethyl-cyclohexyl ester] | 160 µM | 700 µM |
| 130 µM | – | CC1CC(C)CC(OC(=O)NCc2ccccc2)C1 (stereo not shown) [BIO1745, Benzyl-carbamic acid 3,5-dimethyl-cyclohexyl ester] | 120 µM | – |
| 670 µM | – | CCCCNC(=O)OC1CCCC(C)C1C (stereo not shown) [BIO1842, Butyl-carbamic acid 2,3-dimethyl-cyclohexyl ester] | 150 µM | 230 µM |
| 340 µM | 870 µM | C=C(C)C1CCC(C)CC1OC(=O)NCCCC (stereo not shown) [BIO1615, Butyl-carbamic acid 2-isopropenyl-5-methyl-cyclohexyl ester] | 160 µM | 820 µM |
| 1240 µM | – | CCCCCCNC(=O)OC1CCCCC1C(C)C (stereo not shown) [BIO1851, Hexyl-carbamic acid 2-isopropyl-cyclohexyl ester] | 86 µM | 1170 µM |
| 510 µM | – | CCCCNC(=O)OC1CCCC(C)C1 (stereo not shown) [BIO1821, Butyl-carbamic acid 3-methyl-cyclohexyl ester] | – | – |
| 560 µM | – | CCNC(=O)OC1CCC(C(C)C)C(C)C1 (stereo not shown) [BIO1560, Ethyl-carbamic acid 4-isopropyl-3-methyl-cyclohexyl ester] | – | – |
| 520 µM | 680 µM | CCCCCCNC(=O)OC1CC(C)CC(C)(C)C1 (stereo not shown) [BIO1850, Hexyl-carbamic acid 3,3,5-trimethyl-cyclohexyl ester] | 360 µM | – |

More lines, now with the values behind:

| SMILES | IC50 [2] | IC50 [4] | IC50 [1] | EC50 [3] |
| --- | --- | --- | --- | --- |
| CC(C)(C)C1CCC(OC(=O)NC2CCCCC2)CC1 (stereo not shown) [BIO1747, Cyclohexyl-carbamic acid 4-tert-butyl-cyclohexyl ester] | – | – | 120 µM | 610 µM |
| CC1CC(C)CC(OC(=O)NC2CCCCC2)C1 (stereo not shown) [BIO1743, Cyclohexyl-carbamic acid 3,5-dimethyl-cyclohexyl ester] | – | – | 91 µM | 1890 µM |
| O=C(Nc1ccccc1)OC1CCCCC1 [BIO1741, Phenyl-carbamic acid cyclohexyl ester] | – | – | 440 µM | 360 µM |
| COc1ccccc1NC(=O)OC1CC(C)CC(C)(C)C1 (stereo not shown) [BIO1703, (2-Methoxy-phenyl)-carbamic acid 3,3,5-trimethyl-cyclohexyl ester] | 1860 µM | – | 51 µM | – |
| Cc1ccc(NC(=O)OC2CC(C)CC(C)C2)cc1 (stereo not shown) [BIO1822, p-Tolyl-carbamic acid 3,5-dimethyl-cyclohexyl ester] | – | – | 170 µM | – |
| Cc1ccc(NC(=O)OC2CCCCC2C(C)C)cc1 (stereo not shown) [BIO1824, p-Tolyl-carbamic acid 2-isopropyl-cyclohexyl ester] | – | – | 92 µM | 510 µM |
| COc1ccccc1NC(=O)OC1CCCCC1C(C)C (stereo not shown) [BIO1744, (2-Methoxy-phenyl)-carbamic acid 2-isopropyl-cyclohexyl ester] | 230 µM | – | – | – |
| COc1ccccc1NC(=O)OC1C(C)CCC(C)C1C (stereo not shown) [BIO1701, (2-Methoxy-phenyl)-carbamic acid 2,3,6-trimethyl-cyclohexyl ester] | 470 µM | – | 110 µM | – |
| CC(C)C1CCCCC1OC(=O)NCc1ccccc1 (stereo not shown) [BIO1748, Benzyl-carbamic acid 2-isopropyl-cyclohexyl ester] | 2170 µM | – | 59 µM | 810 µM |
| CCNC(=O)OC1CC2CCC1(C)C2(C)C (stereo not shown) [BIO1573, Ethyl-carbamic acid 1,7,7-trimethyl-bicyclo[2.2.1]hept-2-yl ester] | – | – | – | 350 µM |
| CC1CC(C)CC(OC(=O)Nc2ccccc2)C1 (stereo not shown) [BIO1685, Phenyl-carbamic acid 3,5-dimethyl-cyclohexyl ester] | – | – | 340 µM | 600 µM |
| CC1CCCC(OC(=O)Nc2ccccc2O)C1C (stereo not shown) [BIO1643, (2-Hydroxy-phenyl)-carbamic acid 2,3-dimethyl-cyclohexyl ester] | 420 µM | – | 14 µM | – |
